Where a name gives a salt, the structure may show the parent alone.
How the values were obtained:
[1] = system: LI0574 HCC patient derived cells; assay: CellTiter-Glo growth inhibition, HCC patient-derived cells LI0574; format: cell-based, human; conditions: Homo sapiens; LI0574, 72 hours
Protocol: The patient derived Hepatocellular Carcinoma (HCC) cells were maintained in medium respectively described in table 15 containing 1% penicillin-streptomycin (Life Technologies, 15070-063), with a supplements for primary cell culture (PCS) containing hydrocortisone (50 nM), Epidermal Growth Factor (20 ng/ml), β-fibroblast Growth Factor (10 ng/ml), Heparin (2 μg/ml) ITS liquid media supplement (1×) and non-essential amino acid (NEAA, 0.01 mM, 1×). The primary cell were cultured in a humidified atmosphere (95% relative humidity) with 5% CO2 at 37° C.
The cell growth inhibition assay was performed as described previously in example 5 using the CellTiter-Glo® luminescent cell viability assay as described by the manufacturer (Promega, Ref G7571). The number of cells seeded per well (in 96-Well Flat Clear Bottom Black Polystyrene TC-Treated Microplates, Cat #3340, Corning®) is described in the table 16. A backseal black sticker (Cat #6005189, Perkin Elmer) was placed to the bottom of each plate before recording CellTiter-Glo® luminescence.
The experimental data are analyzed using a computer program, Graphpad Prism V 5.0 (GraphPad Software, Inc. La Jolla, Calif.) and EC50 values were determined as the dose of compound required to reduce absorbance values to 50% of the signal obtained for vehicle treated cell cultures and were a mean of at least three independent experiments.

Huh-7 cell line = assay: CellTiter-Glo growth inhibition assay, Huh-7; format: cell-based; conditions: Homo sapiens; Huh-7, hepatocellular carcinoma, 72 h
Protocol: (§1) All cell lines were maintained in medium containing 1% penicillin-streptomycin (Dutscher, P06-07100) and 10% Fetal Bovine Serum (Gibco, W3387L) except 20% for KG-1 cell line and PBMC, and cultured at 37° C. with 5% CO2.
HepG2, Huh7, HCT-116, MDA-MB-231 and A375 cell lines were cultured in Dulbecco's modified Eagle's medium (Dutscher, L0103).
(§2) Cell viability was measured using the CellTiter-Glo® luminescent cell viability assay as described by the manufacturer (Promega, Ref G7571) using an Infinite F200Pro luminometer (Tecan). Briefly, for adherent cells, cells were plated onto 96-well plates (white with clear bottom) in 90 μL of media per well and were allowed to grow overnight before the assay. For cells growing in suspension, cells were plated onto 96-well plates immediately before the assay.
(§3) Compounds were added at different concentrations to each well, and cell cultures were incubated for 72 h. Vehicle (H2O) was used as a control, and all compounds were tested in a constant percentage of H2O. After addition of 100 μL of CellTiter-Glo®, luminescence was measured using an Infinite F200Pro (Tecan). EC50 values were determined as the dose of compound required to reduce luminescent values to 50% of the signal obtained for untreated cell cultures. The experimental data were analyzed using a computer program, Graphpad Prism v5 (GraphPad Software, Inc. La Jolla, Calif.). […]

[2] = system: ALDH+ (CSC) population of MOLM-14 cell line; assay: Aldefluor kit assay, ALDH+ compartment in MOLM-14; format: cell-based, human; conditions: 72 h, control = 100
Excerpt: Analysis of the of aldehyde dehydrogenase (ALDH) compartment and high activity level of aldehyde dehydrogenase activity (ALDH+) was used to detect tumor initiating cells (cancer stem cells, CSC) population. The Aldefluor™ kit assay (StemCell Technologies, 01700) allowed to assess the activity of drugs on CSC cells like in a MOLM-14 acute myeloid leukemia cell line population (ref: Storms, R. W., Trujillo, A. P., Springer, J. B., Shah, L., Colvin, O. M., Ludeman, S. M., & Smith, C. (1999). Isolation of primitive human hematopoietic progenitors on the basis of aldehyde dehydrogenase activity. Proceedings of the National Academy of Sciences, 96(16), 9118-9123). The Aldefluor™ kit assay was used according to the procedure described by the manufacturer. Briefly, MOLM-14 cell line was cultured in MEM alpha medium supplemented with 10% v/v Fetal Bovine Serum, 1% Penicillin-Streptomycin and maintained at 37° C. with 5% CO2. 5·10^5 cells were used in this assay. Each compound was added at different concentrations (see table 8), and cell cultures were incubated for 72 h. Vehicle (H2O) was used as a control, and all compounds were tested in a constant percentage of vehicle. Cells obtained from cell culture were incubated for 45 minutes at 37° C. with Aldefluor™ buffer assay containing the Bodipy™-aminoacetaldehyde, a fluorescent ALDH aldehyde substrate. ALDH converts the fluorescent substrate BAAA to the Bodipy™-aminoacetic acid (BAA) which is retained in the cell. An active efflux inhibitor is present in the Adelfluor™ assay buffer in order to avoid the active efflux from the cell of the substrate product ALDH dependent converted BAA. The fluorescent signal is directly proportional to the ALDH activity in the cells and is measured by flow cytometry. A negative control is used to measure the background fluorescence level. For such purpose, 4-(N,N-diethylamino)-benzaldehyde (DEAB) was used as selective ALDH inhibitor. A viability cell count was performed using LIVE/DEAD® Fixable Far Red Dead Cell Stain Kit (Invitrogen). The experimental data are analyzed using a computer program, Graphpad Prism v5 (GraphPad Software, Inc. La Jolla, Calif.) and EC50 values were determined as the dose of compound required to reduce absorbance values to 50% of the signal obtained for vehicle treated cell cultures.

ARPE-19 cell line = assay: CellTiter-Glo growth inhibition assay, ARPE-19; format: cell-based; conditions: ARPE-19, human retinal pigmented epithelium, 72 h
Protocol: as §1
ARPE-19 cell line was cultured in DMEM:F12 medium (Dutscher, L0093).
as §2, §3

Hep3B-Luc cell line = assay: CellTiter-Glo growth inhibition assay, Hep3B-Luc; format: cell-based; conditions: Homo sapiens, Hep 3B-Luc, 72 h
Protocol: Before compound treatment, the compound was dissolved in H2O to make a 10 mM stock solution. The working solutions (5 folds final concentrations) were then prepared with MEM medium (Gibco, 1128319) containing 10% Fetal Bovine Serum (Gibco, 10099141).
Hep3B-Luc cell line (luciferase transfected human liver carcinoma cell line for orthotopic tumor model) was cultured in MEM Medium supplemented with 10% v/v Fetal Bovine Serum (FBS), 1% Penicillin-Streptomycin and maintained at 37° C. with 5% CO2. 800 cells were plated onto 384-well flat clear bottom white (Corning, 3707).
Cells in log-phase are collected and counted. Cell suspensions are added to each well of 384-well plate at 800 cells per well (total volume 40 μl). The margin wells are filled with PBS buffer. Test compound at various concentrations are added in duplicates (add 10 μl 5× compound solutions to the plate). The assay plate is incubated for 72 h in 37° C./5% CO2 incubator. Cell viability was measured using the CellTiter-Glo® luminescent cell viability assay as described by the manufacturer (Promega, Ref G7571). After addition of 100 μL of CellTiter-Glo® reactifs solution, luminescence was measured using a PHERAstar Plus luminometer. Data were recorded by PHERAstar Plus, Data acquisition and analysis were performed using Microsoft Excel program and GraphPad Prism v.6 software.

**Q.** With `CC(C)(C)NC1CCN(c2cc(NCc3ccc(Cl)cc3)nc3ccccc23)CC1` [Compound 2-3, 2-(4-chlorobenzylamino)-4-(4-tert-butylaminopiperidin-1-yl)-quinoline hydrochloride salt] as the molecule, how does the EC50 [1] read?
**A.** Its EC50 is 2.4 µM.

**Q.** And the EC50 (Huh-7 cell line)?
**A.** Its EC50 is 1.7 µM.

**Q.** And the “ALdefluor positive CSCs (%)” value ([2]; MOLM-14, 2.5 μM)?
**A.** The value was 100%.

**Q.** And the “ALdefluor positive CSCs (%)” value ([2]; MOLM-14, 5.0 μM)?
**A.** The value was 80%.

**Q.** What about the “ALdefluor positive CSCs (%)” value ([2]; MOLM-14, 7.5 μM) of the same molecule?
**A.** The value was 20%.

**Q.** And the EC50 (ARPE-19 cell line)?
**A.** The EC50 was roughly 6.9 µM.

**Q.** And the EC50 (Hep3B-Luc cell line)?
**A.** The EC50 was 1.1 µM.

Reference: patent US10722505B2, “Substituted 2,4 diamino-quinoline as new anticancer agents” (GENOSCIENCE PHARMA, priority 2014, dated 2020)
